Patent US9309231B2, “Bridged ring compounds as hepatitis C virus (HCV) inhibitors and pharmaceutical applications thereof” (SUNSHINE LAKE PHARMA CO., LTD, priority 2012, dated 2016)

Experiments:
HCV GT1b replicon cells = assay: HCV replicon assay, GT1b replicon cells; assay type: cell-based; conditions: Hepatitis C virus, 72 hours incubation, luciferase reporter or NEO gene qPCR readout, read-out: EC50 against HCV 1b genotype
Description: (§1) An HCV Replicon assay was utilized in the present disclosure, and was prepared, developed and validated as described in Science, 1999, 285 (5424), 110-3 and J. Virol., 2003, 77 (5), 3007-19.
(§2) HCV GT1a, GT1b and GT2a replicon cells were used to test the currently described compound series as well as wild-type cells HCV 1b and resistant cells Y^93H, L31F, P32L and I302V. GT1a and CT1b are HCV Replicon System which is transfected HCV 1a, 1b genotype respectively.
(§3) 1. Testing EC50 of the Compounds by Luciferase Assay
(§4) The GT1b cells and GT1a cells were seeded into 96-well plates (8,000 cells in 125 μl/well) respectively; each compound was diluted to desired concentration using 5-fold serial dilutions protocol, 10 dose in duplicate, and added to wells with POD™ 810 Plate Assembler. The final concentration of DMSO was 0.5%; the plates were incubated in a CO2 incubator for 72 hours; after that, 40 μl of Luciferase assay substrate (Promega Bright-Glo) was added to each well, and detected by a chemiluminescence detection system (Topcount Microplate Scintillation and Luminescence Counter) 5 minutes later; data analysis.
(§5) 2. Testing EC50 of the Compounds by Detecting Antibiotic G418 Resistance Gene NEO Gene
(§6) The GT1b cells and GT1a cells were seeded into 96-well plates (8,000 cells in 125 μl/well) respectively; each compound was diluted to desired concentration using 5-fold serial dilutions protocol, 10 dose in duplicate, and added to wells with POD™ 810 Plate Assembler., the final concentration of DMSO was 0.5%; the cells were incubated in a CO2 incubator for 72 hours; quantitative PCR. • Sample preparation: the supernatant was removed, 100 μl of FCW buffer solution was added to each well, washed carefully and discarded the solution; 50 μl of lysate FCP was added to each well, the cells was lysed as PCR template and diluted with DEPC water. • Quantitative PCR: preparation of reaction mixture according to PCR system; the reaction mixture was dispensed into a 384-well PCR reaction plate (specially for quantitative); and a standard template which was diluted in proportion was distributed into the plate; and the sample template was distributed into the plate; then the 384-well plate was sealed with closure plate membrane; the […] PCR machine was operated by procedures; data analysis.
(§7) 3. Data Processing: The EC50 Values of Compounds were Analyzed by GraphPad Prism Software.

HCV GT1a replicon cells = assay: HCV replicon assay, GT1a replicon cells; assay type: cell-based; conditions: Hepatitis C virus, 72 hours incubation, luciferase reporter or NEO gene qPCR readout, read-out: EC50 against HCV 1a genotype
Description: as §1, §2, §3, §4, §5, §6, §7

Compound | EC50 (HCV GT1b replicon cells) [nM] | EC50 (HCV GT1a replicon cells) [nM]
COC(=O)N[C@H](C(=O)N1CCCC1c1ncc(C#Cc2ccc(C#Cc3cnc([C@@H]4CCCN4C(=O)[C@@H](NC(=O)OC)C(C)C)[nH]3)c3c2C2CCC3C2)[nH]1)C(C)C (stereo partly drawn) [Example 19] | 0.026 | 0.087
[2H]C([2H])([2H])C([2H])(C([2H])([2H])[2H])[C@]([2H])(NC(=O)OC)C(=O)N1CCC[C@H]1c1ncc(-c2ccc(-c3ccc(-c4cnc([C@@H]5CC6CC6N5C(=O)[C@@]([2H])(NC(=O)OC)C([2H])(C([2H])([2H])[2H])C([2H])([2H])[2H])[nH]4)cc3)c3c2C2CCC3C2)[nH]1 (stereo partly drawn) [Example 76] | 0.013 | 0.127
COC(=O)N[C@H](C(=O)N1CCC[C@H]1c1ncc(-c2ccc(-c3ccc(-c4ccc(-c5cnc([C@@H]6CCCN6C(=O)[C@@H](NC(=O)OC)C(C)C)[nH]5)cc4)c4c3C3CCC4O3)cc2)[nH]1)C(C)C [Example 63] | 0.815 | 2.25
COC(=O)N[C@H](C(=O)N1CCC[C@H]1c1ncc(-c2ccc3cc(-c4ccc(-c5cnc([C@@H]6CCCN6C(=O)[C@@H](NC(=O)OC)C(C)C)[nH]5)c5c4C4CCC5C4)ccc3c2)[nH]1)C(C)C (stereo partly drawn) [Example 48] | 0.029 | 0.043
COC(=O)N[C@@H](C)C(=O)N1CCCC[C@H]1c1ncc(-c2ccc(-c3ccc(-c4ccc5nc([C@@H]6CCCCN6C(=O)[C@H](C)NC(=O)OC)[nH]c5c4)c4c3C3CCC4N3C)cc2)[nH]1 (stereo partly drawn) [Example 35] | 0.017 | 0.103
COC(=O)N[C@H](C(=O)N1CC(F)(F)C[C@H]1c1ncc(-c2ccc(-c3ccc(-c4cnc([C@@H]5CC(F)(F)CN5C(=O)[C@@H](NC(=O)OC)C(C)C)[nH]4)c4c3C3CCC4C3)cc2)[nH]1)C(C)C (stereo partly drawn) [Example 14] | 0.006 | 0.487
